Our source for the IC50 values is patent US9895338B1, “Cobalt-polypyridyl complex for treatment of cancer, a pharmaceutical composition and a kit comprising it” (Macau University of Science and Technology, priority 2016, dated 2018).

pIC50: −log10 of the molar value.

The term pIC50 denotes the IC50 on a negative log10 scale, so that one unit is a factor of ten.

The subject of this experiment is LLC-1 (lung cancer). In words: MTT cytotoxicity assay, LLC-1. In kind it is cell-based. The conditions noted are these: LLC-1, MTT, 72 h. As to the method:
All prepared cobalt-polypyridyl complexes were dissolved in DMSO at a final concentration of 50 mmol/L and stored at −20° C. before use. Cytotoxicity was assessed by using the 3-(4,5-dimethylthiazol-2-yl)-2,5-diphenyltetrazolium bromide (MTT) (5.0 mg/ml) assay as previously described (Wong, V. K. et al., Cell Death Dis, 2013, 4, e720). Briefly, 4×10^3 cells per well were seeded in 96-well plates before drug treatments. After overnight culture, the cells were then exposed to different concentrations of selected compounds (0.039-100 μmol/L) for 72 h. Cells without drug treatment were used as control. Subsequently, MTT (10 μL) solution was added to each well and incubated at 37° C. for 4 h followed by the addition of 100 μL solubilization buffer (10% SDS in 0.01 mol/L HCl) and overnight incubation. A570 nm was then determined in each well on the next day. The percentage of cell viability was calculated using the following formula: Cell viability (%)=Atreated/Acontrol×100. Data were obtained from three independent experiments. Cells include HeLa cells (cervical cancer), MCF-7 (breast cancer), H1299, H1975, A549 and LLC-1 (lung cancer), HepG2 and Hep3B (liver cancer) and LO2 (normal human hepatocytes).
For orientation: Formazan colour is commonly taken as a measure of viable cells.

Molecule `Cc1ccnc(-c2cc(C)ccn2)c1.Cc1ccnc(-c2cc(C)ccn2)c1.Cc1ccnc(-c2cc(C)ccn2)c1.F[P-](F)(F)(F)(F)F.F[P-](F)(F)(F)(F)F.F[P-](F)(F)(F)(F)F.[Co+3]` [complex (IV), [Co^III(4,4′-Me2-Bpy)3.](PF6)3] gave a negative logarithm of the IC50 (pIC50) of 5.47.
